In publication PMC10745491 (Frontiers in Cellular Neuroscience, 2023):
Where two headings read alike, the source gives them in different places. Peptide text beside a SMILES is read from it.

Assays:
[1] = target: human OXTR (Homo sapiens, UniProt P30559)
[2] = target: rat OXTR (Rattus norvegicus, UniProt P70536)
[3] = target: H1 (Homo sapiens, UniProt P35367)
[4] = target: D1 (Homo sapiens, UniProt P21728)
[5] = target: PDE5 (Homo sapiens, UniProt O76074); assay type: biochemical
[6] = test system: Na+ channel; experiment: radioligand binding assay; design: species or system human
[7] = target: GSK3alpha (Homo sapiens, UniProt P49840)
Sequence of GSK3alpha (P49840 whole entry): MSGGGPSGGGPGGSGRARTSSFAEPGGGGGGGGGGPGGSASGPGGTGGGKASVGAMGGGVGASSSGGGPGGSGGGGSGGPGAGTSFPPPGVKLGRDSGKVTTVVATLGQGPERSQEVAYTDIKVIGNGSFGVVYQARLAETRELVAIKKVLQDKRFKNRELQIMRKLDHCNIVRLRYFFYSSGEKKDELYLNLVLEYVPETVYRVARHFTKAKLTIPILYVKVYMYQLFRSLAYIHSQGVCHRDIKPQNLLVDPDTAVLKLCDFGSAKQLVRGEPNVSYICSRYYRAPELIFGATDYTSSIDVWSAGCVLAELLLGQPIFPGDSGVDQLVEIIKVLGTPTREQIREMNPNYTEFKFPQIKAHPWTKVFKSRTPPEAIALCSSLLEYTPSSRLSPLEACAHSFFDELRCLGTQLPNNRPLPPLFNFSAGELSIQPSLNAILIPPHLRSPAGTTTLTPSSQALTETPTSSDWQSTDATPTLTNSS

[8] = target: 5-HT1A (Homo sapiens, UniProt P08908)
Sequence of 5-HT1A (P08908 whole entry): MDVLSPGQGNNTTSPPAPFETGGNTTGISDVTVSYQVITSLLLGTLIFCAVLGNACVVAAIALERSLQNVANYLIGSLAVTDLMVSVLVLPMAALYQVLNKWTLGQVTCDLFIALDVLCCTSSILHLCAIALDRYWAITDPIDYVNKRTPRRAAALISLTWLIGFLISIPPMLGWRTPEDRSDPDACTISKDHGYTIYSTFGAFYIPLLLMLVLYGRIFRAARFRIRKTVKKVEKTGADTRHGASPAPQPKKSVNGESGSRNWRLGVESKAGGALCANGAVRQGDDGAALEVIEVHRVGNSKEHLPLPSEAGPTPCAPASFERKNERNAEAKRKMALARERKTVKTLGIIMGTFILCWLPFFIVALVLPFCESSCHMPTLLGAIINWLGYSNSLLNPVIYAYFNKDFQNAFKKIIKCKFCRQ

[9] = target: CDK2 (Homo sapiens, UniProt P24941)
[10] = target: xanthine oxidase / superoxide O2-scavenging (Bos taurus, UniProt P80457)
Sequence of xanthine oxidase / superoxide O2-scavenging (P80457 2-1332): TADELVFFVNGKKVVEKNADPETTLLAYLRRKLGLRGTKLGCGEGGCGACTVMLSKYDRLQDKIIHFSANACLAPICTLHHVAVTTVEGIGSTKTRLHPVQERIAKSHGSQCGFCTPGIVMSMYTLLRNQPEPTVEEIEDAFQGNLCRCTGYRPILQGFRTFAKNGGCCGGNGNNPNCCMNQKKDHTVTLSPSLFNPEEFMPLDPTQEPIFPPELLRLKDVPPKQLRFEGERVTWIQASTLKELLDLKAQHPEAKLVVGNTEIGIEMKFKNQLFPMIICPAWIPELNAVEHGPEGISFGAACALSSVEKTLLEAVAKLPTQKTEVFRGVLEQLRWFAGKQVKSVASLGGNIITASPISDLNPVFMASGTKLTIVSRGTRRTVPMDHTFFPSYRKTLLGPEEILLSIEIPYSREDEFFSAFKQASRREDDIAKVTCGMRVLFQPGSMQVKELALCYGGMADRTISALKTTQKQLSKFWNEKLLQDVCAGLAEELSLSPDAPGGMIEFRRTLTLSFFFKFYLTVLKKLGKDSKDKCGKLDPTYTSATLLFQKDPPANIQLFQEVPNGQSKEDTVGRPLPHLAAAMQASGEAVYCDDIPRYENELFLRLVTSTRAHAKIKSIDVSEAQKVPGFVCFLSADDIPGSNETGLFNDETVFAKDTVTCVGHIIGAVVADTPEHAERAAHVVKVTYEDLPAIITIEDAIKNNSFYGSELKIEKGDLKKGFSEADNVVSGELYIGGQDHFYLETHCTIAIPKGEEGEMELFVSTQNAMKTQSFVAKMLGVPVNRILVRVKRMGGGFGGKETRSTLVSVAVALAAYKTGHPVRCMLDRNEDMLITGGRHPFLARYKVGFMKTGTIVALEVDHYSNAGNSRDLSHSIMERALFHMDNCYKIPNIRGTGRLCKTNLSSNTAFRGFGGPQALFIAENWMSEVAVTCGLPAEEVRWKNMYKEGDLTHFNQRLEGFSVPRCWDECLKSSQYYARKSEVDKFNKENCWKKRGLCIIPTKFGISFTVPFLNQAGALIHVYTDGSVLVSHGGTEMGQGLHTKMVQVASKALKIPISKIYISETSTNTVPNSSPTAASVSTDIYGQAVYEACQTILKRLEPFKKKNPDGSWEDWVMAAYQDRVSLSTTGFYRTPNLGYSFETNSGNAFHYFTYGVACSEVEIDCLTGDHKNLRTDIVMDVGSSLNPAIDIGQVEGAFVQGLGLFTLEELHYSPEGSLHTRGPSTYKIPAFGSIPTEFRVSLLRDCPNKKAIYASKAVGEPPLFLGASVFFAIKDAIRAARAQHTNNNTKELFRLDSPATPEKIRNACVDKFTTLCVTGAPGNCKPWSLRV

[11] = test system: CPA rats; conditions: rat, in vivo; for social interaction time (Fig. 5O): sc
[12] = target: acetylcholinesterase (Homo sapiens, UniProt P22303); assay type: biochemical
Sequence of acetylcholinesterase (P22303 32-614): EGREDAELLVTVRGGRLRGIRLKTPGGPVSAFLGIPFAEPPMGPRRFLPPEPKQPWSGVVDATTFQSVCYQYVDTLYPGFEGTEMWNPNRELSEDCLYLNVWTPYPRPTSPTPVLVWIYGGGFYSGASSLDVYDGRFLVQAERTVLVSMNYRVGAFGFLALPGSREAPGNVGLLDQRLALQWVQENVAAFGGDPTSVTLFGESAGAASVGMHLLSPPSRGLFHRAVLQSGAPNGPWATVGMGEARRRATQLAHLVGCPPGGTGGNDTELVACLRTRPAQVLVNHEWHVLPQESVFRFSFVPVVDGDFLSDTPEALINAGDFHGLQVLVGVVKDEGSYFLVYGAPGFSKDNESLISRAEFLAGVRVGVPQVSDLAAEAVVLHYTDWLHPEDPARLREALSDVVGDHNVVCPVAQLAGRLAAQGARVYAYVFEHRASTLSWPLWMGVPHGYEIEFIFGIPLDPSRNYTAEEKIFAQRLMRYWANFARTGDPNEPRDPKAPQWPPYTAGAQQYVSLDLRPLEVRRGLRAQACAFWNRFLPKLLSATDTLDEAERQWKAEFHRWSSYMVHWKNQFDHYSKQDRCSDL

[13] = test system: PFC layer 5 pyramidal neurons; conditions: rat, in vivo
[14] = test system: glycine
[15] = target: A3 (Homo sapiens, UniProt P0DMS8)
Sequence of A3 (P0DMS8 whole entry): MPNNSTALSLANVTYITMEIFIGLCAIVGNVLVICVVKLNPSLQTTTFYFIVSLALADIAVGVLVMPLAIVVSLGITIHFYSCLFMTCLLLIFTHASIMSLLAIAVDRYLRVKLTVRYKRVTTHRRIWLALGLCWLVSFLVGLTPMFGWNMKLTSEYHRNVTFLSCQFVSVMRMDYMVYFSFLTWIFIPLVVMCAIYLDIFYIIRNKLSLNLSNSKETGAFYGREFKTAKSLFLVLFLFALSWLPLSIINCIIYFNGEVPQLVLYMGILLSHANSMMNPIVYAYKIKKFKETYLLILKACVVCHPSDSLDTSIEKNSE

[16] = target: ERalpha (Homo sapiens, UniProt P03372)
Sequence of ERalpha (P03372 whole entry): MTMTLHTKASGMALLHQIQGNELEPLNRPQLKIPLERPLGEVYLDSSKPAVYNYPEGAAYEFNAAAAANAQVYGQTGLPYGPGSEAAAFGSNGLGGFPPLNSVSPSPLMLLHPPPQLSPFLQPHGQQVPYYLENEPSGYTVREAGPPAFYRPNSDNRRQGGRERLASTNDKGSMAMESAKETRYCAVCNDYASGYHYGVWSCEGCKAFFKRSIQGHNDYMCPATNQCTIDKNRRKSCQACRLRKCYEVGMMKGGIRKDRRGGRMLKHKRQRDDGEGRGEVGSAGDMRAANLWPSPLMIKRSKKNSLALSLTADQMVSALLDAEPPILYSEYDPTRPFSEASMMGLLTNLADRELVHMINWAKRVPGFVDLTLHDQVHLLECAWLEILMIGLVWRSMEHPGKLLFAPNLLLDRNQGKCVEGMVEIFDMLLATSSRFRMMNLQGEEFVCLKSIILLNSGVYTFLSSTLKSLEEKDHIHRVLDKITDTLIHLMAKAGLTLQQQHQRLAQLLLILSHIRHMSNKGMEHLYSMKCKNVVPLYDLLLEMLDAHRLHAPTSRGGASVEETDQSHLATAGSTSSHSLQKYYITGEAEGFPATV

[17] = target: 5-HT2A (Homo sapiens, UniProt P28223); experiment: radioligand binding assay
Sequence of 5-HT2A (P28223 whole entry): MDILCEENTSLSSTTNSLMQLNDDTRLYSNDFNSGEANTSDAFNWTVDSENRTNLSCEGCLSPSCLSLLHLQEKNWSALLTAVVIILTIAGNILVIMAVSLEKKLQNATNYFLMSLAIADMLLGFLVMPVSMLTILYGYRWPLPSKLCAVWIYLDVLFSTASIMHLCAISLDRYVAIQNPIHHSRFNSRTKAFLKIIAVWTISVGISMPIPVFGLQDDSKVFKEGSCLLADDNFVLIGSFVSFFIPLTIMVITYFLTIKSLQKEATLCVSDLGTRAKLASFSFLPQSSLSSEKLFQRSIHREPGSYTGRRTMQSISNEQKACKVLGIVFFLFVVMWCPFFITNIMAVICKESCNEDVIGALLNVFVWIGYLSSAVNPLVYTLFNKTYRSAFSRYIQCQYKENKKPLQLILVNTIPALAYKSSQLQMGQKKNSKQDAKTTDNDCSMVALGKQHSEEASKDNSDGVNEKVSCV

[18] = target: M2 (Homo sapiens, UniProt P08172)
Sequence of M2 (P08172 whole entry): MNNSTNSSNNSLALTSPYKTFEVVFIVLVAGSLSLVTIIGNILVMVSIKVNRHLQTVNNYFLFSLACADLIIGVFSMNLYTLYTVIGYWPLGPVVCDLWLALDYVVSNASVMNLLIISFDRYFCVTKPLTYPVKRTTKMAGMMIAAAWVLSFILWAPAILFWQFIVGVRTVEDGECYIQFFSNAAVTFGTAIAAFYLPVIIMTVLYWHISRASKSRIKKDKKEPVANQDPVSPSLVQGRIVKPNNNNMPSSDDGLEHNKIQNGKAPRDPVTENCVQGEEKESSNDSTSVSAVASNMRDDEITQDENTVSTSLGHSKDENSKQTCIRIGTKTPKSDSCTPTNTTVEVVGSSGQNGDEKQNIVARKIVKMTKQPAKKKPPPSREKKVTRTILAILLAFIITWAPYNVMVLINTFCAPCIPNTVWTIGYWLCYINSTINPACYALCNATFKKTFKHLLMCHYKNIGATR

[19] = target: 5-HT3 (Homo sapiens, UniProt P46098)

**Q.** `CC[C@H](C)[C@@H]1NC(=O)[C@H](Cc2ccc(O)cc2)NC(=O)CNC(=O)CC[C@@H](C(=O)N2CC(F)C[C@H]2C(=O)N[C@@H](CC(C)C)C(=O)NCC(N)=O)NC(=O)[C@H](CC(N)=O)NC(=O)[C@H](CCC(N)=O)NC1=O` (stereo partly shown) [RO6958375] (HELM PEPTIDE1{G.Y.I.Q.N.E.[O=C([C@@H]1CC(F)CN1[*:1])[*:2]].L.G.[am]}$PEPTIDE1,PEPTIDE1,1:R1-6:R3$$$V2.0) was tested. Which “activation of human OXTR” value [1] did it give?
**A.** The value was “fully activated”.

**Q.** And the “agonist efficacy and potency relative to oxytocin on rat OXTR” value [2]?
**A.** Its value is “full OXTR agonist and equipotent to oxytocin”.

**Q.** And the “% Inhibition of Control Specific Binding” value [3]?
**A.** The value was -1%.

**Q.** And the “Mean / % of Control Specific Binding” value [3]?
**A.** Its value is 100.9%.

**Q.** What about the “% Inhibition of Control Specific Binding” value [4] of the same compound?
**A.** Its value is -2%.

**Q.** And the “Mean / % of Control Specific Binding” value [4]?
**A.** The value was 102.2%.

**Q.** What about the “% Inhibition of Control Specific Binding” value [5] of the same compound?
**A.** Its value is -21%.

**Q.** What about the “Mean / % of Control Specific Binding” value [5] of the same compound?
**A.** Its value is 121.4%.

**Q.** What about the “% Inhibition of Control Specific Binding” value [6] of the same compound?
**A.** Its value is 10%.

**Q.** And the “Mean / % of Control Specific Binding” value [6]?
**A.** Its value is 89.6%.

**Q.** And the “% Inhibition of Control Specific Binding” value [7]?
**A.** The value was -5%.

**Q.** And the “Mean / % of Control Specific Binding” value [7]?
**A.** The value was 105.2%.

**Q.** What about the “% Inhibition of Control Specific Binding” value [8] of the same compound?
**A.** Its value is 16%.

**Q.** And the “Mean / % of Control Specific Binding” value [8]?
**A.** The value was 84.4%.

**Q.** And the “% Inhibition of Control Specific Binding” value [9]?
**A.** The value was 13%.

**Q.** And the “Mean / % of Control Specific Binding” value [9]?
**A.** The value was 87.1%.

**Q.** What about the “% Inhibition of Control Specific Binding” value [10] of the same compound?
**A.** Its value is 8%.

**Q.** What about the “Mean / % of Control Specific Binding” value [10] of the same compound?
**A.** Its value is 92.1%.

**Q.** And the “social deficits observed in CPA rats” value [11]?
**A.** Its value is “not evident”.

**Q.** And the “social interaction time (Fig. 5O)” value ([11]; 0.001 mg/kg)?
**A.** The value was 198.6 s.

**Q.** And the “social interaction time (Fig. 5O)” value ([11]; 0.07 mg/kg)?
**A.** The value was 190.2 s.

**Q.** And the “% Inhibition of Control Specific Binding” value [12]?
**A.** The value was -2%.

**Q.** And the “Mean / % of Control Specific Binding” value [12]?
**A.** The value was 101.5%.

**Q.** And the “current-membrane voltage relationship and input resistance after CPA” value [13]?
**A.** The value was “normalized”.

**Q.** What about the “differences in passive membrane properties between control and CPA rats” value [13] of the same compound?
**A.** Its value is “not observed”.

**Q.** And the “effect on number of evoked action potentials after CPA” value [13]?
**A.** Its value is “only partially recovered”.

**Q.** What about the “effect on rheobase after CPA” value [13] of the same compound?
**A.** The value was “fully restored”.

**Q.** And the “AUC of current-voltage (IV) curve (Fig. 5L)” value ([13]; 0.07 mg/kg)?
**A.** The value was 36.9 ± 4.56.

**Q.** What about the “AUC of number of action potentials per current step (Fig. 5J)” value ([13]; sc, 0.07 mg/kg) of the same compound?
**A.** Its value is 9.79 ± 2.74.

**Q.** And the “input resistance (Rin) at 80 pA (Fig. 5M)” value ([13]; sc, 0.07 mg/kg)?
**A.** The value was 180.7 MΩ.

**Q.** And the “membrane capacitance, Cm (Fig. 5E)” value ([13]; sc, 0.07 mg/kg)?
**A.** Its value is 65.11 pF.

**Q.** What about the “membrane resistance, Rm (Fig. 5D)” value ([13]; sc, 0.07 mg/kg) of the same compound?
**A.** The value was 77.59 MΩ.

**Q.** What about the “resting membrane potential, Vrest (Fig. 5C)” value ([13]; sc, 0.07 mg/kg) of the same compound?
**A.** The value was -66.87 mV.

**Q.** And the “rheobase (Fig. 5K)” value ([13]; sc, 0.07 mg/kg)?
**A.** The value was 209.

**Q.** What about the “% Inhibition of Control Specific Binding” value [14] of the same compound?
**A.** Its value is 15%.

**Q.** What about the “Mean / % of Control Specific Binding” value [14] of the same compound?
**A.** The value was 84.6%.

**Q.** And the “% Inhibition of Control Specific Binding” value [15]?
**A.** Its value is 4%.

**Q.** And the “Mean / % of Control Specific Binding” value [15]?
**A.** Its value is 96.4%.

**Q.** What about the “% Inhibition of Control Specific Binding” value [16] of the same compound?
**A.** Its value is -2%.

**Q.** What about the “Mean / % of Control Specific Binding” value [16] of the same compound?
**A.** Its value is 101.7%.

**Q.** And the “% Inhibition of Control Specific Binding” value [17]?
**A.** Its value is 9%.

**Q.** What about the “Mean / % of Control Specific Binding” value [17] of the same compound?
**A.** The value was 90.6%.

**Q.** And the “% Inhibition of Control Specific Binding” value [18]?
**A.** Its value is -14%.

**Q.** What about the “Mean / % of Control Specific Binding” value [18] of the same compound?
**A.** Its value is 113.8%.

**Q.** What about the “% Inhibition of Control Specific Binding” value [19] of the same compound?
**A.** Its value is 20%.

**Q.** And the “Mean / % of Control Specific Binding” value [19]?
**A.** The value was 80%.
